This note sets out measurements from PMC8041370, “Limonoids from Guarea guidonia and Cedrela odorata: Heat Shock Protein 90 (Hsp90) Modulator Properties of Chisomicine D” (Journal of Natural Products, 2021).

The term Kd denotes the concentration at which binding is half-saturated. Low readings indicate tighter binding, high ones weaker binding. A word on the IC50: it is the concentration needed to halve the response being measured.

Data set [1] has as its target T1, Hsp90α (Homo sapiens, UniProt P07900). The data set can be described thus: Surface plasmon resonance binding to immobilized Hsp90α. Set-up: purchased Stress-gen Bioreagents Corporation, Victoria, Canada SPP-776. As to conditions: SPR, 25 °C, mean ± standard deviation (n = 3). As for the experimental part:
1 and 4 μM), and, for each sample, a complete binding study was carried out in triplicate. The experiments were performed at 25 °C, using a flow rate of 50 μL/min, with 60 s monitoring of association and 300 s monitoring of dissociation. Changes in mass, due to the binding response, were recorded as resonance units (RU). To obtain the dissociation constant (KD), these responses were fit to a 1:1 Langmuir binding model by nonlinear regression, using the BiaEvaluation sofware program (GE Healthcare). Simple interactions were suitably fitted to a single-site bimolecular interaction model (A + B = AB), yielding a single KD.
In general terms: In SPR one partner is held on a chip, and binding of the other changes the refractive index at the surface.

In data set [2] the target is T1, Hsp90α. The data set can be described thus: Hsp90 ATPase activity. It is filed as biochemical. The conditions noted are these: 10 or 20 μM; data not shown.
Data set [3] deals with U937 (human myeloid leukemia) cell line. The data set can be described thus: MTT cell viability, U937. Type of data set: cell-based. As to conditions: U-937, 48 h, read-out: IC50 growth inhibition U937. The method, then:
(§1) HeLa (cervical carcinoma) and U937 (pro-monocytic, human myeloid leukemia) cell lines were purchased from the American Type Cell Culture (ATCC) (Rockville, MD, USA). HeLa cells were maintained in DMEM, and U937 were cultured in RPMI 1640, both supplemented with 10% FBS, 100 mg/L streptomycin, and penicillin 100 IU/mL at 37 °C in a humidified atmosphere of 5% CO2. To ensure logarithmic growth, cells were subcultured every 2 days. Stock solutions of compound in DMSO were stored in the dark at 4 °C. Appropriate dilutions were prepared in culture medium immediately prior to use. […] PBMCs were isolated from buffy coats of healthy donors (kindly provided by the Blood Center of the Hospital of Battipaglia, Italy) by using standard Ficoll-Hypaque gradients. PBMCs were incubated with DMSO or compound 1 at 30 μM for 48 h. […] The number of viable cells was quantified by the MTT [3-(4,5-dimethylthiazol-2-yl)-2,5-diphenyl tetrazolium bromide] assay. Absorption at 550 nm for each well was assessed using Multiskan GO (Thermo Scientific). Half-maximal inhibitory concentration (IC50) values were calculated using GraphPad Prism 8. Experiments were performed in technical triplicates and repeated two times with similar results.

Data set [4] relates to Hsp90α client protein levels in U937 cells. The data set can be described thus: Western blot of Hsp90α, Hsp70 and Hsp90 client protein levels. It is filed as cell-based, human. As for the experimental part:
(§2) Whole cell lysates (U937) for immunoblot analysis were lysed with RIPA buffer (20 mM Tris-HCl pH 7.5, 150 mM NaCl, 1 mM EDTA, 1% NP-40, 1% sodium deoxycholate, 2.5 mM sodium pyrophosphate) supplemented with protease and phosphatase inhibitors. Protein concentration was determined by a Bradford solution for protein determination (Applichem) using BSA as a standard. Proteins were fractionated on SDS-PAGE, transferred into nitrocellulose membranes, and immunoblotted with the appropriate primary antibody. Signals were visualized with the appropriate horseradish peroxidase-conjugated secondary antibody and enhanced chemiluminescence (Amersham Biosciences-GE Healthcare, NY, USA). Densitometric analyses were carried out using the ImageJ software. Experiments were performed in duplicate.
Proteins extracted from U937 cells following a 24 h treatment with 20 μM solution of compound 1 and from untreated cells (control) were fractionated on SDS-PAGE. The bands corresponding to the intact and truncated forms of Hsp90 (apparent molecular weight 90 and 70 kDa, respectively) were excised and subjected to a classical in-gel tryptic digestion. The resulting peptide mixtures were analyzed in positive ion full scan and dependent scan MS mode on a Q-Exactive Orbitrap mass spectrometer coupled with a nanoUltimate UHPLC system (Thermo Fisher Scientific, Waltham, MA, USA). Peptide separation was performed on a capillary EASY-Spray PepMap column (0.075 mm × 50 mm, 2 μm, Thermo Fisher Scientific) using aqueous 0.1% formic acid (A) and CH3CN containing 0.1% formic acid (B) as mobile phases and a linear gradient from 3% to 40% of B in 45 min and a 300 nL/min flow rate. Mass spectra were acquired over an m/z range from 400 to 1300. Dependent scan data were preliminarily analyzed to confirm the presence of Hsp90 in the digested gel-bands. To this aim, MS and MS/MS data underwent Mascot software (v2.5, Matrix Science, Boston, MA, USA) analysis using the nonredundant data bank UniprotKB/Swiss-Prot (release 2020_03). Parameter sets were as follows: trypsin cleavage; carbamidomethylation of cysteine as a fixed modification and methionine oxidation as a variable modification; a maximum of two missed cleavages; false discovery rate (FDR), calculated by searching the decoy database, 0.05. The data analysis of protein was carried out using the gene ontology tool in the UniProt Knowledgebase (UniProtKB; http://www.uniprot.org). Based on the achieved results, full mass chromatograms were analyzed using Xcalibur software by generating extracted ion spectra specific for the Hsp90 tryptic peptides completely covering the protein amino acidic sequence.
On the technique in general: Immunoblotting shows a protein as a band on a membrane.

In data set [5] the test system is U937 cells. The data set can be described thus: Cell cycle by propidium iodide flow cytometry and p-CDC2/CDC2 Western blot. It is filed as cell-based, human. The method, then: (§3) U937 cells were preliminarily synchronized by serum starvation and then seeded in six-well plates at a cell density of 8 × 10^5 cell/well. After 24 h, they were incubated for 48 h in the presence of compound 1 at IC50 concentration (20 μm), with phenethyl isothiocyanate and DMSO as a positive and negative control, respectively. Apoptosis was evaluated by an annexin V–FITC/PI apoptosis detection kit (Dojindo EU GmbH, Munich, Germany), and the cell cycle was evaluated by propidium iodide (PI) staining of permeabilized cells, according to the available protocol, and flow cytometry (BD FACSCalibur flow cytometer, Becton Dickinson, San Jose, CA, USA). Data from 5000 events per sample were collected. The percentages of the elements in the hypodiploid region and in G1, S, and G2 phases of the cell cycle and apoptosis data were calculated using FlowJo (BD Biosciences). Experiments were performed in technical triplicates and repeated two times with similar results.
as §2
(A flow cytometer gives signals particle by particle.)

Data set [6] concerns PBMC (nontumor human peripheral blood mononuclear cell line). The data set can be described thus: Cytotoxicity on PBMC. It is filed as cell-based. The conditions noted are these: 30 μM, 48 h. As for the experimental part:
HeLa (cervical carcinoma) and U937 (pro-monocytic, human myeloid leukemia) cell lines were purchased from the American Type Cell Culture (ATCC) (Rockville, MD, USA). HeLa cells were maintained in DMEM, and U937 were cultured in RPMI 1640, both supplemented with 10% FBS, 100 mg/L streptomycin, and penicillin 100 IU/mL at 37 °C in a humidified atmosphere of 5% CO2. To ensure logarithmic growth, cells were subcultured every 2 days. Stock solutions of compound in DMSO were stored in the dark at 4 °C. Appropriate dilutions were prepared in culture medium immediately prior to use. […] PBMCs were isolated from buffy coats of healthy donors (kindly provided by the Blood Center of the Hospital of Battipaglia, Italy) by using standard Ficoll-Hypaque gradients. PBMCs were incubated with DMSO or compound 1 at 30 μM for 48 h.

Data set [7] concerns HeLa (epithelial carcinoma) cells. The data set can be described thus: MTT cell viability, HeLa. Type of data set: cell-based. As to conditions: Homo sapiens, 48 h. The method, then:
as §1

For data set [8], the system named is U937 cells. The data set can be described thus: Apoptosis by annexin V-FITC/PI flow cytometry and caspase 3 Western blot. As to conditions: U937, 20 μM. Type of data set: cell-based, human. As for the experimental part:
as §3
Whole cell lysates (U937) for immunoblot analysis were lysed with RIPA buffer (20 mM Tris-HCl pH 7.5, 150 mM NaCl, 1 mM EDTA, 1% NP-40, 1% sodium deoxycholate, 2.5 mM sodium pyrophosphate) supplemented with protease and phosphatase inhibitors. Protein concentration was determined by a Bradford solution for protein determination (Applichem) using BSA as a standard. […]

Setting [9] is: U937, 20 μM, 48 h, PI staining, Figure 2B.

Some results are limits rather than exact numbers.

Take `C/C=C(\C)C(=O)O[C@@H]1/C=C\[C@]2(O)C3=CC(=O)O[C@@H](c4ccoc4)[C@]3(C)CC[C@]2(O)[C@]2(C)C(=O)C[C@@]1(C)[C@@H]2CC(=O)OC` (relative stereo) [Compound 1, 8-hydro-(8S*,9S*)-dihydroxy-14,15-en-chisomicine A]: on Hsp90α [1], binding was characterised by a dissociation constant (Kd) of 0.0182 ± 0.0019 µM. Moreover, the “inhibition of Hsp90 ATPase activity” value at Hsp90α [2] was “did not affect its enzymatic efficiency”. Further, the IC50 in data set [3] was found to be 20 ± 3 µM. Moreover, the Hsp70 cellular levels result in data set [4] (U937, 30 μM, 48 h) is reported as “affected”. Moreover, in data set [4] (U937, 10, 20 and 30 μM, 48 h), the ERK concentration entry is given as “no significant variation”, the Hsp90 amount entry was “down-regulated in a dose-dependent manner” and the p-ERK2 level result is given as “strong depletion”. The Hsp90 cleavage result in data set [4] (U937, 20 and 30 μM, 48 h) was “Hsp90 cleaved form, with an apparent molecular weight of 70 kDa, was observed”. The “level of both isoforms of JNK” value in data set [4] (U937, 48 h, regardless of phosphorylation) is “significantly reduced”. In addition, in the data set on U937 cells [5] (setting [9]), the G1 phase is listed as 53,1, the G2 phase was 16,7 and the S phase is listed as 12,3. For the same molecule, in the data set on U937 cells [5] (U937, 48 h (1 at 20 μM)), the “effect on cell cycle” value was “G2 phase cell cycle arrest”. Moreover, the p-CDC2/CDC2 ratio entry with U937 cells [5] (U937, Western blot, 10 and 20 μM) is reported as “increase”. Also, the “cytotoxic activity on PBMC” value in data set [6] is “did not show any cytotoxic activity”. The molecule further displayed an IC50 in data set [7] above 50 µM. Besides, in the data set on U937 cells [8] (48 h, annexin V/FITC), the “increase of late apoptosis compared to the negative control” value was “about 15%”. Besides, the “pro-caspase 3 cleavage” value with U937 cells [8] (Western blot) is on record as “induced the cleavage of pro-caspase 3”.
